Structures are written as SMILES.

The subject of experiment [1] is human peripheral blood lymphocytes (IgG). Put plainly: In vitro IgG production by peripheral blood lymphocytes. The format is cell-based. Here is the method: Human peripheral blood lymphocytes (6×10^5 cells/ml) were cultured in the presence of 0 to 2 μg/ml of pokeweed mitogen (PWM; Sigma no. 9379) in Dulbeccos minimum essential medium, supplemented with 20% fetal calf serum, for 6 days. The assays were performed in a final volume of 200 μl in microtiter plates (Dynatech; M129B) (Muller et al., Eur. J. Cancer Clin. Oncol. 22: 473-476; 1986). Avarol in a concentration range of 0-3 μg/ml was added at time 0 or 3 days after starting the culture. The supernatants were harvested and assayed for human immunoglobulin content.
The culture supernatants were assayed by the enzyme-linked immunosorbent assay (Houtman et al., Clin. Exp. Immunol. 62: 696-704; 1985) using anti-human IgG (Dakopatts, Hamburg; P214) and anti-human IgM (Dakopatts; P215). These antibodies were conjugated to peroxidase. Bound enzyme activity was measured using 2,2'-azino-bis(3-ethylbenzthiazolinesulfonic acid) (Sigma no. A-1888) as substrate.

The test system of a further experiment is herpes simplex virus. To be noted: in vitro, cultures of herpes simplex virus; cited from earlier work.
In experiment [2] the test system is DTH to oxazolone in NMRI mice. Nature of the experiment: Contact allergy to oxazolone. To be noted: 3-30 mg/kg i.p., day -1 to +2 or day +6 to +8, P>0.05. The experiment is classed as in vivo, mouse. Here is the method: Allergic contact dermatitis against oxazolone was produced according to the method of Asherson and Ptak (Immunol. 15: 405-416; 1968) as well as those of Bure and Degrand (Agents and Actions 9: 534; 1979). Male NMRI mice (20-22 g; 10/group) were sensitized with 100 μl of a 2% oxazolone in acetone solution onto the shaved abdomen (day 0). Animals were treated with avarol (i.p.) daily from day -1 to +2 or from day +6 to +8; control group was treated with deoxymethasone (Casella-Hoechst) as a standard per os at a daily dose of 30 mg/kg for the same period of time as for avarol. Seven days after sensitization 10 μl of a 3% oxazolane (this concentration was previously found to give more reproducible results than the lower 2% concentration) solution were topically applied onto the inner side of one ear, whereas the other ear received only acetone. […] Treated groups were compared with controls using the U-test.

For experiment [3], the system named is plaque forming cells in the spleen of mice. Nature of the experiment: Jerne plaque test, plaque forming cells in spleen of SRBC-immunized mice. The settings on record: for Plaque forming cells per 10^6 cells: 30 mg/kg i.p. The format is in vivo, mouse. The method, then:
Concerning the functional consequences of the compound onto B-cells in vitro, I found (previous section) that both the IgG and the IgM secretion is stimulated in cultures of human lymphoid cells (unseparated) which are treated with non-cytostatic concentrations of avarol. This finding is supported by the results of the Jerne plaque test.
The plaque test of Jerne and Nordin (Science 140: 405-406, 1963) was used with the modification given by Cunningham and Szenberg (Immunolog. 14: 599-601; 1968). Briefly, 8 male NMRI mice per group (20-22 g) were immunized on day 0 by i.p. injection of 5×10^8 SRBC in 0.5 ml saline. Treatment with avarol was done i.p. either from day 0 to day +4 or from day -4 to day 0. One hour after the last drug administration, the animals were killed by a blow on the head and bled. The spleens were removed and a single cell suspension was prepared by teasing the pooled spleens through a 120-μm mesh sieve. After lysing the erythrocytes by 0.15M NH4 Cl, the cells were washed twice in Hank's balanced salt solution containing 29 ml of 7.5% NaHCO3 and 10 ml of 1M HEPES buffer solution per one liter. The cells were resuspended in 2 ml per spleen. Six Cunningham chambers per group were filled with a mixture of 0.5 ml of a suitable dilution of spleen cells (generally 1:100), 0.5 ml of a suspension of SRBC (10^9 /ml) and 125 μl of normal guinea pig complement. After 90-120 min of incubation at 37° C., the number of plaques was counted. Plaques per spleen or per 10^6 spleen cells were calculated.

For experiment [4], the system named is H9-cells infected with HTLV-III. Nature of the experiment: Growth of HTLV-III infected H9 cells. The experiment is classed as cell-based, human. The settings on record: for Cell Concentration: infected H9 cells, four days, controls infected 0.5, uninfected 1.3. The method, then: For this, the H9 cell line was used, it consisting of a cloned OKT4+ T-cell line in which the AIDS virus propagates (M. Popovic, M. G. Sarngadharan, E. Reed and R. C. Gallo; Science 224, 497-500 (1984)).
H9-cells (M. Popovic, M. G. Sarngadharan, E. Reed, R. C. Gallo, Science: 224, 1984, 497-500) were treated with Polybren® (hexadimethrinbromide available on the market; 2 μg/ml) for 30 minutes at 37° C., washed free of Polybren and infected with 2×10^8 HTLV-III virus particles (isolated from H9 cell cultures by the method of M. Popovic; see above) per 4×10^5 H9 cells. Some assays which were not treated with drugs were used as positive controls, while different concentrations of the compound to be tested (avarone or avarol and their derivatives) were added to the test samples. The HTLV-III reverse transcriptase activity of these cultures was analyzed in the manner described above.
H9-cells as well as H9-cells infected with HTLV-III were used in a concentration of 0.2×10^6 cells/ml of culture medium for the inoculating of a culture medium. After incubation for four days, the density of the H9-cells was 1.3×10^6 cells/ml, while the density of the H9-cells infected with HTLV-III was only 0.5×10^6 cells/ml; these two values formed the control values.
Thereupon samples of H9-HTLV-III cells, 0.2×10^6 cells/ml, were treated for four days with different concentrations of avarol.

The next experiment deals with normal B-lymphocytes. The settings on record: cited from earlier work.

As for `CC1=CCC[C@H]2[C@](C)(Cc3cc(O)ccc3O)[C@@H](C)CC[C@]12C` [Avarol, 2-[(1R)-1,2,3,4,4a,7,8,8aα-octahydro-1β,2β,4aβ,5-tetramethyl-1-naphthylmethyl]-1,4-benzenediol], the “IgG production, in words” value in experiment [1] (0.3 or 1 μg/ml, irrespective of PWM) is reported as “significant increase”; in experiment [1] (higher avarol concentrations) it was “turned to normal values”. Further, the IgG synthesized in experiment [1] (avarol 0.3 μg/ml, PWM +, 0 to 6 days) was 6.7 ± 1.5 µg/mL; in experiment [1] (avarol 0.3 μg/ml, PWM +, 3 to 6 days), 7.9 ± 1.9 µg/mL; in experiment [1] (avarol 0.3 μg/ml, PWM -, 0 to 6 days), 2.1 ± 0.5 µg/mL; in experiment [1] (avarol 0.3 μg/ml, PWM -, 3 to 6 days) it was 2.0 ± 0.5 µg/mL; in experiment [1] (avarol 1.0 μg/ml, PWM +, 0 to 6 days) it was 7.0 ± 1.6 µg/mL; in experiment [1] (avarol 1.0 μg/ml, PWM +, 3 to 6 days), 8.5 ± 1.9 µg/mL. Also, the IgG synthesized in experiment [1] (avarol 1.0 μg/ml, PWM -, 0 to 6 days) came to 2.3 ± 0.6 µg/mL; in experiment [1] (avarol 1.0 μg/ml, PWM -, 3 to 6 days) it was 2.2 ± 0.5 µg/mL; in experiment [1] (avarol 3.0 μg/ml, PWM +, 0 to 6 days), 3.9 ± 1.0 µg/mL; in experiment [1] (avarol 3.0 μg/ml, PWM +, 3 to 6 days) it was 4.9 ± 1.0 µg/mL; in experiment [1] (avarol 3.0 μg/ml, PWM -, 0 to 6 days) it was 1.2 ± 0.3 µg/mL; in experiment [1] (avarol 3.0 μg/ml, PWM -, 3 to 6 days) it was 1.3 ± 0.3 µg/mL. The virostatic action entry in the experiment with herpes simplex virus is reported as “certain virostatic action in vitro”. For the same compound, the “influence on DTH to oxazolone, in words” value in experiment [2] is given as “did not influence significantly”. For the same compound, the “Plaque forming cells per 10^6 cells” value was 3,316 in experiment [3] (from 0 to +4 days, untreated 2,782) and 2,202 in experiment [3] (from -4 to 0 days, untreated 2,259). In addition, the “higher number of plaque forming cells/spleen” value in experiment [3] (30 mg/kg, day 0 to day +4) is given as 28%. In addition, the “increase of plaque forming cells/spleen” value in experiment [3] (30 mg/kg, day -4 to day 0) stood at 21%. The “growth rate of H9-HTLV-III cells” value in experiment [4] (about 0.01 μg/ml) is given as “increase the growth rate of H9-HTLV-III cells to values which lie within the range of the control”. Further, the “Cell Concentration” value is 1.42e+06 mL⁻¹ in experiment [4] (0.1 μg/ml) and 1.09e+06 mL⁻¹ in experiment [4] (1 μg/ml). The “concentration inhibiting [^3 H] dThd-incorporation rate by 50%” value in the experiment on normal B-lymphocytes was 1.6 to 1.9 µg/mL.

The values above are taken from patent publication US4939177A, “Use of avarol for the control of AIDS and ARC” (Merz + Co. GmbH & Co., priority 1986, dated 1990).
